Several values for one entry are separate records, joined by “and”; a condition that tells them apart may be missing. Equal values may be shown once.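 A five-concentration, 48-hour dose response in 96-well plates underlies each endpoint, interpolated linearly between surrounding concentrations. At the GI50, growth is halved. TGI denotes the concentration required for complete inhibition of growth.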
Key:
Test in all cases: inhibition of tumour cell growth, NCI panel, 48 h
CCRF-CEM leukemia = test system: CCRF-CEM leukemia
COLO 205 colon = test system: COLO 205 colon
DU-145 prostate = test system: DU-145 prostate
HCT-116 colon = test system: HCT-116 colon
HL-60(TB) leukemia = test system: HL-60(TB) leukemia
NCI-H460 lung = test system: NCI-H460 lung
NCI/ADR-RES ovarian = test system: NCI/ADR-RES ovarian
SK-MEL-28 melanoma = test system: SK-MEL-28 melanoma
SNB-19 CNS = test system: SNB-19 CNS
U251 CNS = test system: U251 CNS

SMILES	GI50 (CCRF-CEM leukemia)	TGI (CCRF-CEM leukemia)	GI50 (COLO 205 colon)	TGI (COLO 205 colon)	GI50 (DU-145 prostate) [µM]	TGI (DU-145 prostate) [µM]	GI50 (HCT-116 colon) [nM]	TGI (HCT-116 colon)	GI50 (HL-60(TB) leukemia)	TGI (HL-60(TB) leukemia)	GI50 (NCI-H460 lung)	TGI (NCI-H460 lung)	GI50 (NCI/ADR-RES ovarian)	TGI (NCI/ADR-RES ovarian)	GI50 (SK-MEL-28 melanoma) [nM]	TGI (SK-MEL-28 melanoma)	GI50 (SNB-19 CNS) [µM]	TGI (U251 CNS)	TGI (SNB-19 CNS)	GI50 (U251 CNS)
C=C1C(C)C2C(Cc3ccccc3)NC(=O)C23C(OC(C)=O)C=CC(C)(O)C(=O)C(C)C/C=C/C3C1O (stereo unspecified)	15400 nM	78.8 µM and > 500 µM	82.5 nM	> 500 µM	19.1	> 500	1040	> 500 µM	1610 nM	20.5 µM and 15.7 µM	291 nM	> 295 µM	> 500 µM	> 500 µM	22200	57.7 µM and 153 µM	0.474	5.47 µM and 53.2 µM		
O=C1c2ccccc2C(=O)c2c1ccc1c3ccccc3n(-c3ccccc3)c21		14.5 µM		34.2 µM		33.4		47.5 µM		8.47 µM		63.8 µM		> 100 µM		34.2 µM		> 100 µM	> 100 µM	
C=C(CN1CCN(c2cc(C(F)(F)F)cc(C(F)(F)F)c2)CC1)c1ccc(C(=O)Nc2ccccc2N)cc1	1490 nM	6.51 µM	7110 nM	52.6 µM	5.4	> 100	3670	> 100 µM	1050 nM	> 100 µM	4090 nM	> 100 µM	5.82 µM	> 100 µM	3680	15.9 µM	14	> 100 µM	> 100 µM	10100 nM
CSc1ccc(-c2cn3ccsc3n2)cc1	3970 nM	> 47.1 µM	14400 nM	> 100 µM	9.07	> 100	3600	> 100 µM	2420 nM	> 50 µM	3710 nM	> 100 µM	26.4 µM	> 100 µM	27000	> 100 µM	43.5	> 100 µM	> 100 µM	7650 nM
CCc1ccc([OH2+])c(C(=O)[O-])c1.CCc1ccc([OH2+])c(C(=O)[O-])c1.CCc1ccc([OH2+])c(C(=O)[O-])c1.CCc1ccc([OH2+])c(C(=O)[O-])c1.[Cu+2].[Cu+2]			> 100000 nM	> 100 µM	70.1	> 100	> 100000	> 100 µM	2400 nM	> 44.4 µM	52600 nM	> 100 µM	17.3 µM	> 100 µM	> 100000	> 100 µM	36.8	> 100 µM	> 61.8 µM	> 59900 nM
COc1ccccc1NC(=O)c1sc2ncn(CCOc3ccccc3)c(=O)c2c1C			2880 nM	> 50 µM	> 50	> 50	1990	> 50 µM	1930 nM	> 50 µM	2550 nM	> 50 µM	1.76 µM	> 50 µM			> 50	> 50 µM	> 50 µM	3500 nM
CC1=C(C(=S)Nc2ccc(Cl)c(C(=O)OC(C)C)c2)SCCO1		44 µM		37.4 µM		57.1		28.6 µM		37.2 µM		44.6 µM		43.2 µM		35.4 µM		36.2 µM	44.5 µM	
CC/C(=C/c1ccc(OC)cc1)[N+](=O)[O-]	1960 nM	5.72 µM	1890 nM	3.75 µM	2.17	5.07	1610	3.1 µM	1890 nM	5.47 µM	2110 nM	4.47 µM	3.13 µM	11.5 µM	1680	3.44 µM	2.77	10.5 µM	7.93 µM	3180 nM
CNC(=O)c1sc(-n2cnc3cc(OC)c(OC)cc32)cc1OCc1ccccc1C(F)(F)F	> 25000 nM	> 25 µM	> 25000 nM	> 25 µM	> 25	> 25	> 25000	> 25 µM	> 15800 nM	> 25 µM	> 25000 nM	> 25 µM	14.9 µM	> 25 µM	> 25000	> 25 µM	> 23.6	> 25 µM	> 25 µM	> 25000 nM
CN(N=O)c1ccc(/C=C/c2ccnc3ccccc23)cc1		> 100 µM		> 100 µM		> 100		> 100 µM		> 100 µM		> 100 µM		> 100 µM		> 100 µM		> 100 µM	> 100 µM	
COc1cccc(/C=C\C(=O)c2ccccc2)c1	6790 nM	> 100 µM	7820 nM	40.8 µM	4.73	20.5	2660	8.27 µM	5980 nM	> 100 µM	4020 nM	22.3 µM	17.2 µM	> 100 µM	4310	15 µM	7.68	14.1 µM	24.4 µM	2770 nM
NP1(Oc2ccc(F)cc2)=NP(N)(Oc2ccc(F)cc2)=NP(Oc2ccc(F)cc2)(Oc2ccc(F)cc2)=N1 (stereo unspecified)		18.9 µM		19.4 µM		20.1		15.7 µM		22.3 µM		13.5 µM		18.4 µM		25.2 µM		15.9 µM	22.8 µM	
Cc1cnc(C(=O)Nc2nc3ccc(S(=O)(=O)Nc4ccc(C(C)(C)C)cc4)cc3[nH]2)cn1	415 nM	14.5 µM	503 nM	7.74 µM	0.525	4.51	498	6.22 µM	304 nM	1.07 µM	370 nM	2.02 µM	0.37 µM	3.57 µM	1170	14 µM	0.591	9.99 µM	13.7 µM	648 nM
NS(=O)(=O)c1cccc(Nc2cc(-c3ccc(F)cc3)[nH]n2)c1	23000 nM	> 25 µM	> 25000 nM	> 25 µM	16.2	> 25	11900	> 25 µM	> 25000 nM	> 25 µM	13800 nM	> 25 µM	> 25 µM	> 25 µM	> 25000	> 25 µM	> 25	> 25 µM	> 25 µM	16500 nM
COc1ccc(/C(=C(\c2ccccc2)[N+](=O)[O-])c2ccc(OCCN3CCCC3)cc2)cc1	5190 nM	22.9 µM	1460 nM	3.14 µM	9.52	21.5	2460	13.5 µM	1940 nM	4.6 µM	2020 nM	4.69 µM	8.41 µM	24.2 µM	1770	3.38 µM	5.61	12.6 µM	18.6 µM	2840 nM
Nc1nc(SCC#CCCl)c2[nH]cnc2n1	3390 nM	19.3 µM	4400 nM	14.9 µM	4.39	15.9	3860	15.2 µM	2080 nM	6.61 µM	3620 nM	16.7 µM	6.16 µM	30.4 µM	11700	27.2 µM	10.5	7.79 µM	23.2 µM	2970 nM
O=C(O)CN(CCN(CC(=O)O)CC(=O)O)CC(=O)O.[Cu+2].[Na+]	> 100000 nM	> 100 µM	> 100000 nM	> 100 µM	> 100	> 100	> 100000	> 100 µM	> 100000 nM	> 100 µM	> 100000 nM	> 100 µM	> 100 µM	> 100 µM	> 100000	> 100 µM	> 100	> 100 µM	> 100 µM	> 100000 nM
O=C(/C=C/c1ccco1)Nc1ncc(Cc2cc(Cl)ccc2Cl)s1	38.5 nM	> 100 µM			0.055	> 41.6	50.9	> 100 µM	48.2 nM	0.159 µM	39.2 nM	> 100 µM	0.0327 µM	0.37 µM	2130	> 100 µM	0.0585	> 100 µM	> 100 µM	42.6 nM
COC(=O)[C@]12CC[C@@H](C)[C@H](C)[C@@H]1C1=CC[C@@H]3[C@@]4(C)C[C@@H](OC(C)=O)[C@H](OC(C)=O)[C@@](C)(COC(C)=O)[C@@H]4[C@H](O)C[C@@]3(C)[C@]1(C)CC2	1960 nM	> 100 µM	513 nM	6.25 µM	3.55	> 100	423	> 100 µM	590 nM	11.4 µM	505 nM	16.2 µM	3.16 µM	> 100 µM	2740	> 100 µM	3.54	> 100 µM	> 100 µM	860 nM
CC1CCc2c(C(=O)Nc3ncc(Cc4cccc([N+](=O)[O-])c4)s3)csc2C1 (stereo unspecified)	612 nM	> 100 µM	370 nM	19.6 µM	1.05	> 100	468	> 100 µM	324 nM	3.8 µM	491 nM	> 100 µM	0.46 µM	> 100 µM	3660	> 100 µM	0.678	> 100 µM	> 100 µM	523 nM
O=C(O)CCCCCNCc1cc2cc3c(cc2c2cc(OCc4ccccc4)ccc12)OCO3					2.37	5.47	1580	3.48 µM	2320 nM	6.85 µM	1700 nM	3.33 µM	2.88 µM	11.1 µM	1780	3.33 µM	4.05	3.28 µM	20.7 µM	1730 nM
COc1cc(C(=O)/C=C/c2c[nH]c3ccccc23)cc(OC)c1OC	25.4 nM	14 µM	19.2 nM	0.132 µM	0.0296	30	< 17.5	16.9 µM	< 14.5 nM	0.0422 µM	< 19.1 nM	2.17 µM	< 0.0144 µM	33.6 µM	494	41.9 µM	0.0342	16.1 µM	> 57.3 µM	< 19.5 nM
CC1OC(O[C@@H]2C=C3CC[C@@H]4[C@H](CC[C@]5(C)[C@@H](c6ccc(=O)oc6)CC[C@]45O)[C@@]3(C)CC2)C(O)C(O)C1O (stereo partly specified)				0.0208 µM and 0.0477 µM		0.0153		0.0017 µM	1.5 nM and 5.92 nM			0.003 µM and 0.00049 µM		0.003 µM and 0.000304 µM	2.81				0.0198 µM and 0.0319 µM	
N#Cc1ccc2c(-c3ccnc(NC4CC4)n3)c(-c3ccc(F)cc3)nn2c1	> 25000 nM	> 25 µM	> 25000 nM	> 25 µM	> 25	> 25	> 25000	> 25 µM	> 25000 nM	> 25 µM	> 25000 nM	> 25 µM	> 25 µM	> 25 µM	> 25000	> 25 µM	> 25	> 25 µM	> 25 µM	> 25000 nM
COc1cc(/C=N/NC(=O)c2cnn3c2NC(c2ccccc2)C3)ccc1OCc1ccccc1 (stereo unspecified)	712 nM	> 100 µM	953 nM	4.22 µM	1.47	6.4	1180	11.7 µM	328 nM	7.54 µM	437 nM	1.66 µM	1.51 µM	10.9 µM	1360	5.11 µM	1.25	3.07 µM	13.7 µM	1140 nM
COc1cc2c3c(c4cc(OC)c(OC)cc4c2cc1OC)CN1CCC[C@H]1C3	52.4 nM and < 10.4 nM	0.977 µM and 4.84 µM	59.2 nM and < 10 nM		0.0205	0.187		1.75 µM and 1.04 µM	85.3 nM and < 16.5 nM		30 nM and < 10 nM	1.13 µM and 0.825 µM	0.111 µM and 0.0379 µM					0.331 µM	0.184 µM	22.1 nM and < 10 nM
Nc1nc(N)c(CCCCc2ccc([N+](=O)[O-])cc2)c(N)n1		> 100 µM		> 100 µM		> 100		> 100 µM		> 100 µM		> 100 µM		> 100 µM				> 100 µM	> 100 µM	

From PubChem BioAssay (NCI)
